The values that follow come from ChEMBL document CHEMBL5518208 (J Med Chem, 2024).

Format in all cases: ADME, organism-based
The nature of series [1]: Half life in male ICR mouse at 5 mg/kg, iv measured upto 24 hrs by LC-MS/MS analysis. The note with it: in vivo.
Series [2] in a line: AUC last in male ICR mouse at 25 mg/kg, po measured upto 24 hrs by LC-MS/MS analysis. Conditions: in vivo.
The nature of series [3]: Tmax in male ICR mouse at 25 mg/kg, po measured upto 24 hrs by LC-MS/MS analysis. Conditions: in vivo.
Series [4] is described as follows: Observed AUC infinity in male ICR mouse at 5 mg/kg, iv measured upto 24 hrs by LC-MS/MS analysis. Conditions: in vivo.
A short description of series [5]: Drug concentration in BALB/c mouse plasma at 100 mg/kg, sc measured after 2 hrs by LC-MS/MS analysis.
Series [6] is described as follows: Drug concentration in BALB/c mouse plasma at 100 mg/kg, sc measured after 1 hrs by LC-MS/MS analysis.
Series [7] is described as follows: Drug concentration in BALB/c mouse plasma at 100 mg/kg, sc measured after 0.5 hrs by LC-MS/MS analysis.
Series [8] is described as follows: Drug concentration in BALB/c mouse plasma at 100 mg/kg, sc measured after 4 hrs by LC-MS/MS analysis.
Series [9] is described as follows: Observed MRT infinity in male ICR mouse at 5 mg/kg, iv measured upto 24 hrs by LC-MS/MS analysis. The note with it: in vivo.
Series [10] in a line: AUC last in male ICR mouse at 5 mg/kg, iv measured upto 24 hrs by LC-MS/MS analysis. Conditions: in vivo.
A short description of series [11]: Cmax in male ICR mouse at 25 mg/kg, po measured upto 24 hrs by LC-MS/MS analysis. The note with it: in vivo.
The nature of series [12]: Observed AUC infinity in male ICR mouse at 25 mg/kg, po measured upto 24 hrs by LC-MS/MS analysis. Conditions: in vivo.
Series [13] in a line: Observed clearance in male ICR mouse at 5 mg/kg, iv measured upto 24 hrs by LC-MS/MS analysis. Conditions: in vivo.
Series [14] is described as follows: Observed volume of distribution at steady state in male ICR mouse at 5 mg/kg, iv measured upto 24 hrs by LC-MS/MS analysis. The note with it: in vivo, read-out: Vdss.
Series [15] can be described thus: Observed MRT infinity in male ICR mouse at 25 mg/kg, po measured upto 24 hrs by LC-MS/MS analysis. The note with it: in vivo.
Series [16] is described as follows: Half life in male ICR mouse at 25 mg/kg, po measured upto 24 hrs by LC-MS/MS analysis. The note with it: in vivo.

Broadly, the half-life is the time in which the quantity being followed falls by half. High values mean slow loss, low ones fast loss. The AUC(0-t) is the area under the concentration-time curve up to a stated or last time point. A lower AUC(0-t) goes with low exposure. One may read the Tmax as the time from dosing to the highest level. Usually AUC(0-inf) stands for the area under the concentration-time curve extrapolated to infinity. The MRT inf is a mean duration of stay, worked out from the concentration-time curve. Broadly, the Cmax is the peak of the concentration-time curve. In general, clearance refers to the rate of elimination divided by the concentration. A lower clearance goes with inefficient removal. Consider `O=c1ccc2c(N3C[C@@H]4[C@@H](CCP(=O)(O)O)[C@@H]4C3)ncnc2[nH]1`, for which the half-life in series [1] is 60.6 min; in series [16], 33.6 min. Besides, the exposure AUC(0-t) at 24 h in series [2] turned out to be 932 ng·h/mL; in [10], 4390 ng·h/mL. Moreover, in [3], the Tmax was 45 min. The AUC(0-inf) was determined as 4400 ng·h/mL in [4] and 965 ng·h/mL in [12]. Further, in series [5], the concentration at 2 h was 1.5 µM. The concentration at 1 h in series [6] was 26 µM. In addition, the concentration at 0.5 h in series [7] worked out at 112 µM. The compound also returned a concentration at 4 h in [8] of 0.04 µM. In addition, the values for the MRT inf in series [9] and in series [15] were 18.6 min and 156 min, respectively. The compound further showed a Cmax in series [11] of 352 ng/mL. In series [13], this compound gave a clearance of 21.6 mL/min/kg. Further, in [14], the Vd was determined as 0.373 L/kg.
